Where no end group is shown, it is not given here. [ ]: non-standard residue; d: D form.
Tests used:
[1] = test system: rats; assay: Bradykinin-induced non-neurogenic inflammation (Evans blue extravasation) after chronic denervation; format: in vivo, rat
Experimental: After chronic denervation (see 1.2.1.), each group of 5 rats received various doses (1, 2.5, 5, 10 or 20 μg, respectively, i.v.) of TT-232 and simultaneously Evans blue (50 mg/kg i.v.). Ten minutes later, bradykinin was injected underneath the plantar skin of the lower limbs of the rats. After 15 minutes the animals were bled and the amount of the extravasated Evans blue (expressed as […] related to the wet tissue) was determined as.described above (1.1.).

[2] = test system: Wistar rats; assay: 0.5% dextran-induced non-neurogenic inflammation (foot swelling, plethysmometer) after chronic denervation; format: in vivo, rat
Experimental: This test is based on the fact that a non-neurogenic, so-called clearly chemical inflammation can be induced by chemical excitation (e.g. by dextran, carrageenin, formalin) on a chronically denervated body area at least 5 days following the transsection of the nerve. These chemical agents release inflammation-inducing substances (histamine, bradykinin, PAF, prostaglandins and leucotrienes) from immunocytes, chiefly from mast cells.
Dextran solution (0.1 ml, 0.5%) is administered into both feet, underneath the plantar skin of Wistar rats (5 to 7 animals in each group) anaesthetized by nembutal (40 mg/kg i.v.) 5 days after bilateral denervation (transsection of the saphenous and sciatic nerves) of the lower limbs. The pretreated animals received somatostatin (SS), ocreotide or TT-232 (10 μg/kg i.p.) 10 minutes earlier. Before the administration of dextran (0 minute value), then after 10, 20 and 30 minutes, respectively, the swelling of the feet was measured by using a plethysmometer (Ugo Basil). Dextran elicits the so-called clearly chemical inflammation in the feet deprived of nerve supply (innervation) through the transmitters released from the mast cells.
A dose/effect ratio was determined for each substance.

[3] = test system: release of sensory neuropeptides from the trachea of rats; assay: In vitro release of sensory neuropeptides (SP, CGRP, SOM) from the trachea of rats, RIA; set-up: species or system rat
Experimental: After bleeding out, the tracheas of two rats each were removed, placed into an organ bath (1.8 ml) and Krebs solution saturated with oxygen (95% of oxygen and 5% of carbon dioxide) was bubbled through it at 37° C. for 60 minutes (with a rate of 1 ml/min). After stopping the flow, the bath solution was changed 3 times (pre-stimulated—stimulated—post-stimulated) for 8 minutes. The release of sensory neuropeptides from the tissue samples was induced by electric (40 V, 0.1 ms, 10 Hz, 120 s) and chemical (10^−7 M of capsaicin) stimulation, in the presence or absence of TT-232 (200 nM, 500 nM). The fractions were collected in ice-cold tubes; the wet weights of tracheas were measured. The concentrations of substance P (SP), calcitonin gene-related peptide (CGRP) and somatostatin (SOM) were determined by using a specific radioimmunoassay (RIA) developed in our laboratory and expressed as the amount of peptide released from one g of tissue. The limits of measurements were: 2 fmol/tube for SP; 1 fmol/tube for CGRP; and 2 fmol/tube for SOM [Németh, J.: Acta Physiol. Hung. 84, 313-315 (1996); Helyes, Zs.: Br. J. Pharmacol. 121, 613-615 (1997)].

[4] = test system: Wistar rats; assay: 1% mustard oil-induced neurogenic inflammation (Evans blue plasma extravasation, foot skin); format: in vivo, rat
Experimental: Thirty minutes after acute bilateral denervation of the lower limbs (transsection of the saphenous and sciatic nerves), 50 mg/kg of Evans blue dye was administered to the tail vein of nembutal-anaesthetized (pentobarbital, 40 mg/kg i.p.) Wistar rats (150-220 g body weight; 5 to 7 animals in each group). […] The mustard oil induces a so-called neurogenic inflammation by the selective stimulation of the peripheral endings of CSPAN's and by releasing the mediators being present therein (chiefly tachykinins and CGRP); this neurogenic inflammation appears as a vasodilatation in the area of arterioles and in the form of a plasma extravasation at the venular side. Since the dye Evans blue is bound to serum albumin in the vascular bed, its precipitation and accumulation in the upper skin surface of foot are proportional to the extent of plasma extravasation. Thus, the quantitative determination of intensity of the inflammation becomes possible. After the painting with mustard oil, the animals were bled, the foot dorsum skins were cut out and their weights were determined. The amount of dye extracted during 72 hours of incubation in formamide was determined at 620 nm on a spectrophotometer (Spectromon 195). The amount (expressed as μg) of the extravasated Evans blue related to one g of wet tissue was calculated by means of the following formula:
Evans blue (μg/g)=E×V×k/m
E is the light absorption of the solution, V means the volume (ml) of the solution, m is the weight […] of the skin cut out from the foot dorsum skin; and k is a constant determined on the basis of a dilution series, which is characteristic of the dye solution.

[5] = capsaicin stimulation, 200 nM TT-232
[6] = capsaicin stimulation, 500 nM TT-232
[7] = electrical stimulation, 500 nm TT-232

“D-Phe-Cys-Tyr-D-Trp-Lys-Cys-Thr-NH2 ([dF]CY[dW]KCT-NH2; cysteine pairing not given here) [TT-232]” gave an Evans blue extravasation ([1]; TT-232 1 μg/kg i.v., control (buffer) 127.35 ± 7.11) of 98.21 ± 7.44 µg/kg, an Evans blue extravasation ([1]; TT-232 2.5 μg/kg i.v.) of 85.02 ± 7.33 µg/kg and an Evans blue extravasation ([1]; TT-232 5 μg/kg i.v.) of 81.95 ± 7.64 µg/kg. For the same substance, the Evans blue extravasation ([1]; TT-232 10 μg/kg i.v.) was 86.31 ± 8.74 µg/kg, the Evans blue extravasation ([1]; TT-232 20 μg/kg i.v.) was 77.4 ± 4.59 µg/kg and the “prevention of dextran-induced non-neurogenic inflammation (in words)” value ([2]; 10 μg/kg, even 40 minutes following the pretreatment) was “significantly prevented”. It also gave a foot swelling % ([2]; Table 2.a, 0.5 μg/kg, 10 minutes) of 27.63 ± 3.5%, a foot swelling % ([2]; Table 2.a, 0.5 μg/kg, 20 minutes) of 39.94 ± 3.07% and a foot swelling % ([2]; Table 2.a, 0.5 μg/kg, 30 minutes) of 41.33 ± 5.95%. The foot swelling % ([2]; Table 2.a, 1.0 μg/kg, 10 minutes) was 20.51 ± 2.92%, the foot swelling % ([2]; Table 2.a, 1.0 μg/kg, 20 minutes) was 38.07 ± 3.12% and the foot swelling % ([2]; Table 2.a, 1.0 μg/kg, 30 minutes) was 44.32 ± 3.18%. For the same substance, the foot swelling % ([2]; Table 2.a, 2.5 μg/kg, 10 minutes) was 20.54 ± 5.16%, the foot swelling % ([2]; Table 2.a, 2.5 μg/kg, 20 minutes) was 33.02 ± 4.46% and the foot swelling % ([2]; Table 2.a, 2.5 μg/kg, 30 minutes) was 39.59 ± 4.76%. It also gave a foot swelling % ([2]; Table 2.a, 5.0 μg/kg, 10 minutes) of 17.29 ± 3.13%, a foot swelling % ([2]; Table 2.a, 5.0 μg/kg, 20 minutes) of 27.81 ± 2.39% and a foot swelling % ([2]; Table 2.a, 5.0 μg/kg, 30 minutes) of 35.95 ± 2.97%. The foot swelling % ([2]; Table 2.a, 10 μg/kg, 10 minutes) was 17.60 ± 2.05%, the foot swelling % ([2]; Table 2.a, 10 μg/kg, 20 minutes) was 27.59 ± 2.5% and the foot swelling % ([2]; Table 2.a, 10 μg/kg, 30 minutes) was 36.40 ± 1.71%. The foot swelling % ([2]; Table 2.a, 20 μg/kg, 10 minutes) was 19.56 ± 1.71%, the foot swelling % ([2]; Table 2.a, 20 μg/kg, 20 minutes) was 29.73 ± 1.7% and the foot swelling % ([2]; Table 2.a, 20 μg/kg, 30 minutes) was 37.67 ± 2.33%. For the same substance, the “prevention of foot-swelling compared with diclofenac and meloxicam (in words)” value ([2]; Table 2.a, TT-232 concentration a thousandth part of the others) was “more effectively”, the foot swelling % ([2]; Table 2, 10 μg/kg i.p. 10 min before dextran, 10 minutes, control 32.97) was 24.4% and the foot swelling % ([2]; Table 2, 10 μg/kg i.p. 10 min before dextran, 20 minutes, control 49.695) was 34.39%. The foot swelling % ([2]; Table 2, 10 μg/kg i.p. 10 min before dextran, 30 minutes, control 56.68) was 29.43%, the “decrease of capsaicin-induced SOM release” value [3, 5] was 48% and the “decrease of capsaicin-induced SP release” value [3, 5] was 44%. The “inhibition of capsaicin-induced CGRP release” value [3, 6] was 27%, the “inhibition of capsaicin-induced SOM release” value [3, 6] was 74% and the “inhibition of capsaicin-induced SP release” value [3, 6] was 79%. The “inhibition of CGRP release” value [3, 7] was 48%, the “inhibition of SOM release” value [3, 7] was 42% and the “inhibition of SP release” value [3, 7] was 36%. The “amount of SOM released” value ([3]; electrical stimulation, 500 nm TT-232, without TT-232 0.51 fmol/mg) was 0.39 fmol/mg, the “amount of CGRP released” value ([3]; electrical stimulation, 500 nm TT-232, without TT-232 0.69 fmol/mg) was 0.36 fmol/mg and the “amount of SP released” value ([3]; electrical stimulation, 500 nm TT-232, without TT-232 6 fmol/mg) was 3.8 fmol/mg. For the same substance, the “basal, non-stimulated release of the neuropeptides (in words)” value ([3]; no stimulation) was “not affected”, the “Decrease % (Evans blue extravasation vs control)” value ([4]; 20 μg/kg i.p., 1% mustard oil) was 63.616% and the Evans blue extravasation ([4]; 20 μg/kg i.p., 1% mustard oil on feet, control 169.525) was 61.68 µg/g. The “inhibition of mustard oil-induced neurogenic inflammation (in words)” value ([4]; 20 μg/kg, 20 minutes after i.p. administration) was “significantly inhibited”, the “equipotent dose ratio vs somatostatin (times lower dose)” value ([4]; dose/effect relation, FIG. 2) was about 8 times and the “highest antiinflammatory effect relative to highest effect of somatostatin” value ([4]; dose/effect relation, FIG. 2) was “double”. It also gave an inhibition of inflammation ([4]; intravenous dose of 2.5 μg/kg, 2 hours after administration (FIG. 2.a)) of 35%.

Source: patent US6689813B2 (Biostatin Gyogyszerkutato-Fejleszto kft., priority 1998, dated 2004)
